Experimental data taken from patent US9549921B2, “Heterocyclic compounds and methods of use thereof for the treatment of hepatitis C” (priority 2014, dated 2017).

What was measured:
HCV replicon genotype 1a = assay: HCV replicon assay, genotype 1a (cell ELISA for NS3/4A); format: cell-based, hepatitis C virus; settings: Hepatitis C virus, 96 h, read-out: 1a IC50 (nM), HCV genotype 1a replicon cells, 96 hours incubation, NS3/4A ELISA readout, % of DMSO control
Summary of the method: (§1)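 Readout is NS3/4A protein level from an antibody-based cell ELISA, serving as an indirect measure of replicon RNA; IC50 fitted with a four-parameter function relative to DMSO control. Replicon cells, kept under G418 beforehand, were plated with serial compound dilutions minus G418 for 96 hours.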

HCV replicon genotype 1b = assay: HCV replicon assay, genotype 1b (cell ELISA for NS3/4A); format: cell-based, hepatitis C virus; settings: Hepatitis C virus, 96 h, read-out: 1b IC50 (nM), HCV genotype 1b replicon cells, 96 hours incubation, NS3/4A ELISA readout, % of DMSO control
Summary of the method: as §1

SMILES | IC50 (HCV replicon genotype 1a) [nM] | IC50 (HCV replicon genotype 1b) [nM]
CNC(=O)c1c(-c2ccc(F)cc2)oc2cc(N(C)S(C)(=O)=O)c([C@H]3CCCN(S(=O)(=O)c4cc5cccc(F)c5[nH]4)C3)cc12 [Example 3, (R)-5-(1-((7-fluoro-1H-indol-2-yl)sulfonyl)piperidin-3-yl)-2-(4-fluorophenyl)-N-methyl-6-(N-methylmethylsulfonamido)benzofuran-3-carboxamide] | 148 | 109
CNC(=O)c1c(-c2ccc(F)cc2)oc2cc(N(C)S(C)(=O)=O)c([C@H]3CCCN(c4nc5c(C#N)cccc5o4)C3)cc12 [Example 4, (R)-5-(1-(4-cyanobenzo[d]oxazol-2-yl)piperidin-3-yl)-2-(4-fluorophenyl)-N-methyl-6-(N-methylmethylsulfonamido)benzofuran-3-carboxamide] | 7.03 | 6.53
CNC(=O)c1c(-c2ccc(F)cc2)oc2cc(N(C)S(C)(=O)=O)c([C@@H]3CCCN(c4nc5c(C#N)cccc5o4)C3)cc12 [Example 5, (S)-5-(1-(4-cyanobenzo[d]oxazol-2-yl)piperidin-3-yl)-2-(4-fluorophenyl)-N-methyl-6-(N-methylmethylsulfonamido)benzofuran-3-carboxamide] | 53.7 | 19.3
CNC(=O)c1c(-c2ccc(F)cc2)oc2cc(N(C)S(C)(=O)=O)c(C3C[C@@H](c4nc5c(F)cccc5o4)N(C)C3)cc12 (stereo partly drawn) [Example 12, 5-((5S)-5-(4-fluorobenzo[d]oxazol-2-yl)-1-methylpyrrolidin-3-yl)-2-(4-fluorophenyl)-N-methyl-6-(N-methylmethylsulfonamido)benzofuran-3-carboxamide] | 92.8 | 37.8
CNC(=O)c1c(-c2ccc(F)cc2)oc2cc(N(C)S(C)(=O)=O)c(C3CNCC(c4cc5c(F)cccc5[nH]4)N3)cc12 (centres unmarked) [Example 13, 5-(6-(4-fluoro-1H-indol-2-yl)piperazin-2-yl)-2-(4-fluorophenyl)-N-methyl-6-(N-methylmethylsulfonamido)benzofuran-3-carboxamide] | 140 | 165
CNC(=O)c1c(-c2ccc(F)cc2)oc2cc(N(C)S(C)(=O)=O)c(C3CCN(C)C(c4cc5c(F)cccc5[nH]4)C3)cc12 (centres unmarked) [Example 16, 5-(2-(4-fluoro-1H-indol-2-yl)-1-methylpiperidin-4-yl)-2-(4-fluorophenyl)-N-methyl-6-(N-methylmethylsulfonamido)benzofuran-3-carboxamide] | 333 | 106
CNC(=O)c1c(-c2ccc(F)cc2)oc2cc(N(C)S(C)(=O)=O)c([C@H]3CCCN(C(=O)c4cc5cccc(F)c5[nH]4)C3)cc12 [Example 31, (R)-5-(1-(7-fluoro-1H-indole-2-carbonyl)piperidin-3-yl)-2-(4-fluorophenyl)-N-methyl-6-(N-methylmethylsulfonamido)benzofuran-3-carboxamide] | 17.1 | 9.38
CNC(=O)c1c(-c2ccc(F)cc2)oc2cc(N(C)S(C)(=O)=O)c([C@@H]3CCCN(C(=O)c4cc5cccc(F)c5[nH]4)C3)cc12 [Example 32, (S)-5-(1-(7-fluoro-1H-indole-2-carbonyl)piperidin-3-yl)-2-(4-fluorophenyl)-N-methyl-6-(N-methylmethylsulfonamido)benzofuran-3-carboxamide] | 53.1 | 19.2
CCn1c(C(=O)N2CCC[C@@H](c3cc4c(C(=O)NC)c(-c5ccc(F)cc5)oc4cc3N(C)S(C)(=O)=O)C2)cc2c(F)cccc21 [Example 33, (S)-5-(1-(1-ethyl-4-fluoro-1H-indole-2-carbonyl)piperidin-3-yl)-2-(4-fluorophenyl)-N-methyl-6-(N-methylmethylsulfonamido)benzofuran-3-carboxamide] | 130 | 196
CCn1c(C(=O)N2CCC[C@H](c3cc4c(C(=O)NC)c(-c5ccc(F)cc5)oc4cc3N(C)S(C)(=O)=O)C2)cc2c(F)cccc21 [Example 34, (R)-5-(1-(1-ethyl-4-fluoro-1H-indole-2-carbonyl)piperidin-3-yl)-2-(4-fluorophenyl)-N-methyl-6-(N-methylmethylsulfonamido)benzofuran-3-carboxamide] | 84.1 | 65.3
